Laboratory results reported in ChEMBL document CHEMBL1201862, “PubChem BioAssay data set” (2004).
Blank lines part the entries; values can stand above or below the compound they belong to. The source made the active and inactive calls.

How the values were obtained:
[1] = Luminescence Cell-Based Dose Retest to Confirm Inhibitors of Cancer Stem Cells. [Related pubchem assays (depositor defined):AID2717, AID2721]; type: functional; settings: Homo sapiens
[2] = viability loss of HMLE_sh_eGFP cells – cell-based, luminescence, counter-screen for HMLE_sh_ECad selective toxicity project, dose response (AID 463074); type: functional, Homo sapiens;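 also: HMLE human mammary epithelial cells expressing control shRNA against eGFP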
Cytochrome P450 2D6 = Cytochrome P450 2D6 (Homo sapiens, UniProt P10635);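 also: CYP2D6 member of a cytochrome P450 panel assay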
Cytochrome P450 3A4 [3] = target: T1, Cytochrome P450 3A4 (Homo sapiens, UniProt P08684);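 also: CYP3A4 tested as one member of a cytochrome P450 panel screen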
T1 sequence (P08684 whole entry): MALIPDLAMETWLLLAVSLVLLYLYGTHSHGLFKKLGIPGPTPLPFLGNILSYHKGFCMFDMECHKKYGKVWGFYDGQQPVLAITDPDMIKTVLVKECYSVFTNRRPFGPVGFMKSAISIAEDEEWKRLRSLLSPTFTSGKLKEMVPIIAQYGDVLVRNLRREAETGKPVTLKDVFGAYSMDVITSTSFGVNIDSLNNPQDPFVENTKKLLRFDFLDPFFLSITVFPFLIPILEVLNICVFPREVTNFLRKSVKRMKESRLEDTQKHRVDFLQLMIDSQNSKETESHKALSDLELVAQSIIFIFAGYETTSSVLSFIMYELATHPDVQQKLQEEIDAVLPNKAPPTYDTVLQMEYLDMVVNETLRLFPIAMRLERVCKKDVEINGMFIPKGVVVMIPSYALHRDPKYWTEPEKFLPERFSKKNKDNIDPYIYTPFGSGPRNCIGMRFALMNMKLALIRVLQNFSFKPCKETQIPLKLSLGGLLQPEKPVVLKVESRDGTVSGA

[4] = target: Peroxisome proliferator-activated receptor gamma/Nuclear receptor coactivator 1 (Homo sapiens, UniProt P37231); experiment: (§1) TR-FRET dose response biochemical High Throughput Screening assay for agonists of the steroid receptor coactivator 1 (SRC-1) recruitment by the peroxisome proliferator-activated receptor gamma (PPAR gamma): non-selective agonists. [Related pubchem assays (depositor defined):AID1300, AID1808, AID504735, AID631]; type: protein assay
[5] = target: Peroxisome proliferator-activated receptor gamma/Nuclear receptor coactivator 3 (Homo sapiens, UniProt P37231); experiment: as §1, with “3 (SRC-3)” for “1 (SRC-1)”, “assays: 1301 (Confirmation screen.), 1048 (Primary screen.)]” for “assays (depositor defined):AID1300, AID1808, AID504735, AID631]”; type: functional
Sequence of Peroxisome proliferator-activated receptor gamma/Nuclear receptor coactivator 3 (P37231 whole entry): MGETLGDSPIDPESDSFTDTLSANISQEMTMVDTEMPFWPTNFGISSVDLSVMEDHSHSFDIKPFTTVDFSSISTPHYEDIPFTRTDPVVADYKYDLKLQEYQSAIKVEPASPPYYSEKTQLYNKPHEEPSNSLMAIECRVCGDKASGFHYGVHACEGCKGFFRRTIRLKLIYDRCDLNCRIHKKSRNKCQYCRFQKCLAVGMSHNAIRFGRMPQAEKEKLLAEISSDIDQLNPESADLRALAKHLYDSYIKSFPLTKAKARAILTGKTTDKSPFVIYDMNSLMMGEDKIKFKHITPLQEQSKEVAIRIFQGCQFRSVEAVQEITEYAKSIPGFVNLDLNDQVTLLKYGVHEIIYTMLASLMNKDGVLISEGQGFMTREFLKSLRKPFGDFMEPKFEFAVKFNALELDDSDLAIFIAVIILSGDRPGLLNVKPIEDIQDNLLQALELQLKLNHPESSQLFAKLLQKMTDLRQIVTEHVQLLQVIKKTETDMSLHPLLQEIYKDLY
Sequence of Peroxisome proliferator-activated receptor gamma/Nuclear receptor coactivator 3 (Q9Y6Q9 whole entry, further chain): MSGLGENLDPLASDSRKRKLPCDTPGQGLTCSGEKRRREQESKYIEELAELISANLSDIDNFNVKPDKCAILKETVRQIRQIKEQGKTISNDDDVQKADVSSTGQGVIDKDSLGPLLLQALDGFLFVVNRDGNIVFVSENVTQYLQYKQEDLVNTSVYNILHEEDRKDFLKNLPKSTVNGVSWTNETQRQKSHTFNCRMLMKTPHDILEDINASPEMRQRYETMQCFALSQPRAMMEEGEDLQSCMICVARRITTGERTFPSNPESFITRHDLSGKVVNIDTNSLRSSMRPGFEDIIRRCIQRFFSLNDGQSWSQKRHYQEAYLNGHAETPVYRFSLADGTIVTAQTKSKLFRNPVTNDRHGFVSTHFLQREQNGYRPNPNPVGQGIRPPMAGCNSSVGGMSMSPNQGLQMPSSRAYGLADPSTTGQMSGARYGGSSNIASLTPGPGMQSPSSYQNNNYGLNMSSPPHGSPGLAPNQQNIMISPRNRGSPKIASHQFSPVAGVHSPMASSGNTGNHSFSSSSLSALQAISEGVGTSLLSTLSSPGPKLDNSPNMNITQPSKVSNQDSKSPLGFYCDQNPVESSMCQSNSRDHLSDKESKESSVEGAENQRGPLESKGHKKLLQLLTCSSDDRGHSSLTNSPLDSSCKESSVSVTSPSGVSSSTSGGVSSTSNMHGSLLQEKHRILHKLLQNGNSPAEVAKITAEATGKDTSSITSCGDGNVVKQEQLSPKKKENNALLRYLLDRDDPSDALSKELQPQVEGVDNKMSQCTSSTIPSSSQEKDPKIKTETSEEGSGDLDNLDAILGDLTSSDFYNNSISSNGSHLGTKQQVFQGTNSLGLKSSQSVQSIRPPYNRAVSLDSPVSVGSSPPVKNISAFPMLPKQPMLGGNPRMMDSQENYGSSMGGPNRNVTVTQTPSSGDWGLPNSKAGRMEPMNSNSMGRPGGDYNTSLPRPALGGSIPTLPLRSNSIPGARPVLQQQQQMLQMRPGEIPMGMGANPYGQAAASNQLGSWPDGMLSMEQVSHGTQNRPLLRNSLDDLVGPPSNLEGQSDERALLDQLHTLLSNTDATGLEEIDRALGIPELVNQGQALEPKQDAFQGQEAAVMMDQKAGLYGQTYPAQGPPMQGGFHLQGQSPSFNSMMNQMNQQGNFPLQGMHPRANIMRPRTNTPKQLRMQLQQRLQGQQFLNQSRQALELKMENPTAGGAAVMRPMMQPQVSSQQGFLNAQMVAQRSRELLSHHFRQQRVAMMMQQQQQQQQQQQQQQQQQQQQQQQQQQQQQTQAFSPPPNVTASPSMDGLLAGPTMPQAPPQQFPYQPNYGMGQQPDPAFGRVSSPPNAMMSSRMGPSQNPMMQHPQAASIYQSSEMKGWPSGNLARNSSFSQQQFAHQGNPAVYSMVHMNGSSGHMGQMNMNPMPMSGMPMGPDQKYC

[6] = target: Peroxisome proliferator-activated receptor gamma/Nuclear receptor coactivator 2 (Homo sapiens, UniProt P37231); experiment: TR-FRET dose response biochemical High Throughput Screening assay for agonists of the steroid receptor coactivator 2 (SRC-2) recruitment by the peroxisome proliferator-activated receptor gamma (PPAR gamma): non-selective agonists. [Related pubchem assays: 1297, 1032 ]; type: functional
Sequence of Peroxisome proliferator-activated receptor gamma/Nuclear receptor coactivator 2 (P37231 whole entry): as the sequence (P37231 whole entry) above
Sequence of Peroxisome proliferator-activated receptor gamma/Nuclear receptor coactivator 2 (Q15596 whole entry, further chain): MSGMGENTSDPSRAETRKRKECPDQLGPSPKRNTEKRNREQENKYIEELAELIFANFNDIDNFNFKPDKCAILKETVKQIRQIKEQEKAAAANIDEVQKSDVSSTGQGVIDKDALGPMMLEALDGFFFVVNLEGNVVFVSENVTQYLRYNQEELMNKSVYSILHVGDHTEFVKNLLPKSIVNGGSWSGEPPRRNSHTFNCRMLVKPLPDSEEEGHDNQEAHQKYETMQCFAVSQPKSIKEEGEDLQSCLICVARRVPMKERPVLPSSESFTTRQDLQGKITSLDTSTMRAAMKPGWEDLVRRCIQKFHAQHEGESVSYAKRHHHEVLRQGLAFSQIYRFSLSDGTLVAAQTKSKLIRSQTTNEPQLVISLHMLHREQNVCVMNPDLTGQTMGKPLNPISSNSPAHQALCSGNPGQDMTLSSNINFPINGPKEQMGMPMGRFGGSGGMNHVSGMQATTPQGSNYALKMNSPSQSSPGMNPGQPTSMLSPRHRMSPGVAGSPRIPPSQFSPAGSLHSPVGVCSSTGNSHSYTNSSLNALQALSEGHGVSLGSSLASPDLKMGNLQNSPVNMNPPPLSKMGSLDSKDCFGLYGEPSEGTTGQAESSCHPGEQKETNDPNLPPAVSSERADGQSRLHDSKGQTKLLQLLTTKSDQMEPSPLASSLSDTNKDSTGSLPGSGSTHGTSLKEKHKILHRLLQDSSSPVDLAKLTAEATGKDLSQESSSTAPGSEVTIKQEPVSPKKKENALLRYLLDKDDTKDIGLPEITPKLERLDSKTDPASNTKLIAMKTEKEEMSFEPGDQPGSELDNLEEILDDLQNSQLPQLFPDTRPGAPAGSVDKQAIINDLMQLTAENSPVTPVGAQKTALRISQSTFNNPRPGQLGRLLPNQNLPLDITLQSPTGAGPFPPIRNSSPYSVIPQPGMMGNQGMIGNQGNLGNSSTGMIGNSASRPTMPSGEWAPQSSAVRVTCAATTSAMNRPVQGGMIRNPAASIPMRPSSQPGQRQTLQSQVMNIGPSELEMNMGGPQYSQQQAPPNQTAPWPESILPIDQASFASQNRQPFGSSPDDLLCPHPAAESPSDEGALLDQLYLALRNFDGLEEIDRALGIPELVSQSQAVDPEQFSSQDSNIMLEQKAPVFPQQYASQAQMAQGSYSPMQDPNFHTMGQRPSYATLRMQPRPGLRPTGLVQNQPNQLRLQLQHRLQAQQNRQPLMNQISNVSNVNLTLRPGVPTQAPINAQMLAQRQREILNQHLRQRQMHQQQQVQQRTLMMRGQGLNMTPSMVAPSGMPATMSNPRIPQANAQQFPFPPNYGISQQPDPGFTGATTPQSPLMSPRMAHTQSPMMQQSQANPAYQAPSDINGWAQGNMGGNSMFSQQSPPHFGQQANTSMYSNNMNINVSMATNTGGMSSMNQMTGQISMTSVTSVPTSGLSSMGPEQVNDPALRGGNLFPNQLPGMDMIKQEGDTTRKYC

Bcl-2-related protein A1 = target: T2, Bcl-2-related protein A1 (Mus musculus, UniProt Q07440); type: functional;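 also: confirmatory dose–response counterscreen on Bfl-1, used to check hits from a UBC13 polyubiquitin inhibitor campaign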
T2 sequence (Q07440 whole entry): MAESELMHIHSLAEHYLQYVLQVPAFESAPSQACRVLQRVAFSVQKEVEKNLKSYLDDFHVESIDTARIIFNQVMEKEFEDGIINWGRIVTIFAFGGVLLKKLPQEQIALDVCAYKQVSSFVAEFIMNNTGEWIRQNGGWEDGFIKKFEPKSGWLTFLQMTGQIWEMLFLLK

[7] = target: T3, Ubiquitin-conjugating enzyme E2 N (Homo sapiens, UniProt P61088); type: functional
T3 sequence (P61088 whole entry): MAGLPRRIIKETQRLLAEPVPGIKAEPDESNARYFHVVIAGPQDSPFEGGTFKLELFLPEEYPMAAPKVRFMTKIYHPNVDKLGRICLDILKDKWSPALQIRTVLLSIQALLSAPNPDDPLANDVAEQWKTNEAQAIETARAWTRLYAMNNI

[8] = target: T3, Ubiquitin-conjugating enzyme E2 N; type: functional; remark: listed apart in the source
CHO-K1 = experiment: (§2) Counterscreen for antagonists of the orexin 1 receptor (OX1R; HCRTR1): Homogeneous time resolved fluorescence (HTRF)-based cell-based dose response assay to identify antagonists of the parental CHO-K1 cell line. [Related pubchem assays (depositor defined):AID434989, AID435008, AID463079, AID485270, AID492963, AID492964, AID492965, AID493232, AID504699, AID504701]; type: functional; settings: Cricetulus griseus
[9] = as §2, with “Fluorescence-based” for “Homogeneous time resolved fluorescence (HTRF)-based”, “cell-based high throughput” for “cell-based”, “CHO” for “CHO-K1”; type: functional
[10] = target: T4, Orexin/Hypocretin receptor type 1 (Homo sapiens, UniProt O43613); experiment: Homogeneous Time Resolved Fluorescence (HTRF)-based cell-based high throughput dose response assay for antagonists of the orexin 1 receptor (OX1R; HCRTR1). [Related pubchem assays (depositor defined):AID434989, AID435008, AID463079, AID485270, AID492963, AID492964, AID492965, AID493232, AID504717, AID504718]; type: functional
T4 sequence (O43613 whole entry): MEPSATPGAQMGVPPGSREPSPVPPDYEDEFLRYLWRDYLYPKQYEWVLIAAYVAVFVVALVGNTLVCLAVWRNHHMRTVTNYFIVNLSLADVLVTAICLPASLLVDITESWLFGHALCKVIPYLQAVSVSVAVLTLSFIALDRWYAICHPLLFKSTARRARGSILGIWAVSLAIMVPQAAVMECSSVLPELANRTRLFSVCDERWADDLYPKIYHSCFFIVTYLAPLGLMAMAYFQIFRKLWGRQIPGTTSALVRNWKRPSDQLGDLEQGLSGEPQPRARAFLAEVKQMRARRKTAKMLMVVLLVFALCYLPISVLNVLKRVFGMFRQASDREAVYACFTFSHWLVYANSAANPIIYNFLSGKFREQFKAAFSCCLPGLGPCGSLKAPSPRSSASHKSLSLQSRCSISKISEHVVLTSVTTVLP

[11] = target: T4, Orexin/Hypocretin receptor type 1; experiment: Fluorescence-based cell-based high throughput dose response assay for antagonists of the orexin 1 receptor (OX1R; HCRTR1). [Related pubchem assays (depositor defined):AID434989, AID435008, AID463079, AID485270, AID492963, AID492964, AID492965, AID493232, AID504717, AID504718]; type: functional
Cytochrome P450 3A4 [12] = target: T1, Cytochrome P450 3A4; remark: listed apart in the source
[13] = target: T5, Mannose-6-phosphate isomerase (Homo sapiens, UniProt P34949); experiment: MPI enzyme activity inhibition – biochemical, fluorescence intensity, coupled assay, primary screen (AID 1209)
T5 sequence (P34949 whole entry): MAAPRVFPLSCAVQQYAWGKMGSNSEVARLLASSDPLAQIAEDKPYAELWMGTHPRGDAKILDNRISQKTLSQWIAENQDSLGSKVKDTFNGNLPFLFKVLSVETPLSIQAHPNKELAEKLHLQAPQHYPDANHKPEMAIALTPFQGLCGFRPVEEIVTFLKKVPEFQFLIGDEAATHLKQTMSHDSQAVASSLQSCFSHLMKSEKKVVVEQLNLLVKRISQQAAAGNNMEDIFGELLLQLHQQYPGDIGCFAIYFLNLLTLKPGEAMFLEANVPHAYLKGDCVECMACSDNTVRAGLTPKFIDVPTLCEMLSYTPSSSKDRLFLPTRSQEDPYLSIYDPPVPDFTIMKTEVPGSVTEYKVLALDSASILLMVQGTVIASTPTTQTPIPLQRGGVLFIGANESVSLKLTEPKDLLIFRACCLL

[14] = Trypanosoma cruzi growth suppression in host cells – NIH3T3 host cells, beta-gal luminescence, confirmation (AID 2044); type: functional, cell-based;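 also: intracellular parasites grown in NIH/3T3 mouse fibroblasts as host cells; luminescent beta-galactosidase reporter signal from transgenic T. cruzi replicating inside host cells; inhibitors lower the luminescence signal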
[15] = NIH3T3 cell viability loss – ATP luminescence, mouse fibroblasts, counter-screen, dose response (AID 2010); type: functional, cell-based;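 also: cells exposed to compound for about 90 hours before reading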
INS1 = experiment: INS-1E survival protection against cytokine death – cell-based, luminescence, retest, dose response (AID 449756); type: functional; settings: Rattus norvegicus;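 also: cell death triggered by IL-1 beta plus TNF-alpha plus IFN-gamma mixture; protective hits raise ATP signal compared with cytokine alone wells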
Protein Wnt-3a = Protein Wnt-3a (Mus musculus, UniProt P27467); experiment: antagonism of Wnt3a pathway luciferase reporter – Wnt-LIGHT cells, luminescence, selectivity assay for Gli-SUFU antagonist project, dose response (AID 651570); type: functional; settings: read-out: IC50_Mean;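 also: Wnt-LIGHT reporter cells stimulated with conditioned medium from Wnt3a-producing cells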
HeLa = experiment: ATP-based viability loss in HeLa cells – cell-based, CellTiter-Glo luminescence, cherry-pick samples, cytotoxicity control for MITF activator project, dose response (AID 540259); type: functional; settings: Homo sapiens
Cytochrome P450 2C9 = Cytochrome P450 2C9 (Homo sapiens, UniProt P11712)
Sequence of Cytochrome P450 2C9 (P11712 whole entry): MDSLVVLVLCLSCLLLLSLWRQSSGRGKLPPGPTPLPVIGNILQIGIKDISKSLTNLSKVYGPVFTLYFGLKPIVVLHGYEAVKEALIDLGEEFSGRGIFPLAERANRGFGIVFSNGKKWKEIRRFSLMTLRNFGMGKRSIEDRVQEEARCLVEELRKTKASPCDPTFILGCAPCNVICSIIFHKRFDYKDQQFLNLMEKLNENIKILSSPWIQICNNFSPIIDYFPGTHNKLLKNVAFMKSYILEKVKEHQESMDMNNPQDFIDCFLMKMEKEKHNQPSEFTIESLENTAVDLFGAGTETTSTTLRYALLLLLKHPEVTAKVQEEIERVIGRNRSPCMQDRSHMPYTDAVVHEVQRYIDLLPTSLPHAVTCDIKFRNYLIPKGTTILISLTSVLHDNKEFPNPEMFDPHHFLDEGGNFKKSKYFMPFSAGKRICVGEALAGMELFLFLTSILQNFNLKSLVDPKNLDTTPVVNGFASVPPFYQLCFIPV

[16] = target: T6, Rac GTPase-activating protein 1 (Homo sapiens, UniProt Q9H0H5); experiment: blockers of MgcRacGAP-driven Rac1 GTP hydrolysis – biochemical, ADP Hunter fluorescence, primary and confirmatory, confirmation (AID 624330); type: functional
T6 sequence (Q9H0H5 whole entry): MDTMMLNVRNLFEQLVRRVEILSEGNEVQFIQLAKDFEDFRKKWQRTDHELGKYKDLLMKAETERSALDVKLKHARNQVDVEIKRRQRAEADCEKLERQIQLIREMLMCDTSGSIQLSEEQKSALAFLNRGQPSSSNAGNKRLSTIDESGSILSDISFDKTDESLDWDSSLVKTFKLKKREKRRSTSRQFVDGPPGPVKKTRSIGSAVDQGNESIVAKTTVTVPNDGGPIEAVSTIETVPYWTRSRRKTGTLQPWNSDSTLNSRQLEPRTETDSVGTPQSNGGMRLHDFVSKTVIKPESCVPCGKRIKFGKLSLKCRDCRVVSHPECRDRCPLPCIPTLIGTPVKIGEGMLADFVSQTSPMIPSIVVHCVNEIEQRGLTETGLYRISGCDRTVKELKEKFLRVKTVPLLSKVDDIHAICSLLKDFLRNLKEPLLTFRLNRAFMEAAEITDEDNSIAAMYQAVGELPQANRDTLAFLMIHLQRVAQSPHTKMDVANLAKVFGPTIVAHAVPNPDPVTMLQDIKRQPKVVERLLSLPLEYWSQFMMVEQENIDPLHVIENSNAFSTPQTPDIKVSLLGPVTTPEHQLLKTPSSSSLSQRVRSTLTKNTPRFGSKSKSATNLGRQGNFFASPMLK

Escherichia coli = experiment: microbe, parasite or virus in culture

SMILES: CCCCCOc1ccc(OC(=O)c2ccncc2)cc1
AC50 [1]: 7.57 µM (active)
AC50 [2]: 21.2 µM (active)
AC50 (Cytochrome P450 2D6): 3.98 µM (inconclusive)
AC50 (Cytochrome P450 3A4 [3]): 25.1 µM (inconclusive)

EC50 [4]: > 79.4 µM (inactive)
EC50 [5]: > 79.4 µM (not active)
EC50 [6]: > 79.4 µM (not active)
IC50 (Bcl-2-related protein A1): > 20 µM (inactive)
IC50 [7]: 4.95 µM (active)
IC50 [8]: 5.57 µM (active)
SMILES: CCn1c(=O)cc(SCC(=O)NCCCN2CCN(c3ccc(F)cc3)CC2)c2ccccc21

SMILES: Cc1cc(C)nc(N=C(N)Nc2ccc(F)c([N+](=O)[O-])c2)n1
IC50 (CHO-K1): 11.6 µM (inactive)
IC50 [9]: 17.8 µM (inactive)
IC50 [10]: 10.1 µM (inactive)
IC50 [11]: 15.1 µM (inactive)

AC50 (Cytochrome P450 3A4 [12]): inconclusive
SMILES: Cn1cccc1C(=O)N1CCC2(CC1)CCN(c1ncccn1)CC2

AC50 (Cytochrome P450 3A4 [12]): inconclusive
SMILES: Cn1c(=O)c(-c2ccc(F)cc2)nc2cnc(N3CCOCC3)nc21

SMILES: CC[N+]1=C(C)C(C)(C)c2cc(C)ccc21
IC50 [13]: > 50 µM (not active)
EC50 [14]: 1.49 µM (active)
EC50 [15]: > 60 µM (not active)
AC50 [1]: 24 µM (active)
AC50 [2]: 64.4 µM (active)
AC50 (INS1): 5.84 µM (active)
IC50 (Protein Wnt-3a): 0.892 µM (active)

SMILES: NC(=O)CC(NC(=O)Cc1cccc2ccccc12)c1ccc(NC2CCCCC2)c([N+](=O)[O-])c1 (stereo not given)
AC50 [1]: 5.79 µM (active)
AC50 [2]: 27.9 µM (active)

SMILES: Cc1ccc(C(=O)NCCc2ccc(F)cc2)s1
AC50 (HeLa): 43.2 µM (active)

AC50 (Cytochrome P450 3A4 [12]): inconclusive
AC50 (Cytochrome P450 2C9): inconclusive
SMILES: COC(=O)c1cc(C(=O)c2cccc(Cl)c2Cl)cn1C

SMILES: Cc1nc2cc(NC(=O)COc3ccccc3C#N)ccc2n1-c1ccccc1
IC50 (CHO-K1): > 66.2 µM (inactive)
IC50 [9]: > 49.7 µM (inactive)
IC50 [10]: 1.61 µM (active)
IC50 [11]: 3.45 µM (active)

SMILES: C(=N\Nc1ccccn1)/c1ccc(N2CCOCC2)cc1
IC50 [16]: 134 µM (active)
AC50 (Escherichia coli): 62 µM (active)

SMILES: CCc1ccc(O)c(-c2cc(C(=O)Nc3cccnc3)[nH]n2)c1
AC50 (HeLa): > 350 µM (inactive)
